From patent US20230365546A1, “5-SUBSTITUTED INDOLE 3-AMIDE DERIVATIVES, PREPARATION METHOD AND USE THEREOF” (ORIGIANT PHARMACEUTICAL CO., LTD, priority 2020, published 2023)

What was measured:
Experiment in all cases: Kinase Profiler 10 μM panel
AAK1(h) = AAK1(h) (Homo sapiens (Human), UniProt Q2M2I8)
Protocol: (§1) In vitro kinase assays were conducted using Kinase Profiler services provided by Eurofins. The experimental method was as follows: the small molecule compound to be tested (0.001-10 μM), the protein kinase to be tested were incubated with a buffer containing substrate, 10 mM magnesium acetate, and [γ-^33P-ATP], the reaction was started by adding Mg\TPmix, after incubation for a period of time at room temperature, a 3% phosphate solution was added to the buffer to stop the reaction. Subsequently, 10 μL of the reaction mixture was quantitatively pipetted onto P30 filter paper, which was washed three times with 75 mM phosphate solution and then once with methanol. The P30 filter paper was air-dried and scintillation fluid was added for scintillation counting.

[1] = molecular target: PI3 Kinase (p110a/p65a)(h) (Homo sapiens (Human), UniProt P42336)
Protocol: as §1

GCN2(h) = GCN2(h) (Homo sapiens (Human), UniProt Q9P2K8)
Protocol: as §1

Haspin(h) = Haspin(h) (Homo sapiens (Human), UniProt Q8TF76)
Protocol: as §1

Hck(h) = Hck(h) (Homo sapiens (Human), UniProt P08631)
Protocol: as §1

PIP5K1g(h) = PIP5K1g(h) (Homo sapiens (Human), UniProt O60331)
Sequence of PIP5K1g(h) (O60331 whole entry): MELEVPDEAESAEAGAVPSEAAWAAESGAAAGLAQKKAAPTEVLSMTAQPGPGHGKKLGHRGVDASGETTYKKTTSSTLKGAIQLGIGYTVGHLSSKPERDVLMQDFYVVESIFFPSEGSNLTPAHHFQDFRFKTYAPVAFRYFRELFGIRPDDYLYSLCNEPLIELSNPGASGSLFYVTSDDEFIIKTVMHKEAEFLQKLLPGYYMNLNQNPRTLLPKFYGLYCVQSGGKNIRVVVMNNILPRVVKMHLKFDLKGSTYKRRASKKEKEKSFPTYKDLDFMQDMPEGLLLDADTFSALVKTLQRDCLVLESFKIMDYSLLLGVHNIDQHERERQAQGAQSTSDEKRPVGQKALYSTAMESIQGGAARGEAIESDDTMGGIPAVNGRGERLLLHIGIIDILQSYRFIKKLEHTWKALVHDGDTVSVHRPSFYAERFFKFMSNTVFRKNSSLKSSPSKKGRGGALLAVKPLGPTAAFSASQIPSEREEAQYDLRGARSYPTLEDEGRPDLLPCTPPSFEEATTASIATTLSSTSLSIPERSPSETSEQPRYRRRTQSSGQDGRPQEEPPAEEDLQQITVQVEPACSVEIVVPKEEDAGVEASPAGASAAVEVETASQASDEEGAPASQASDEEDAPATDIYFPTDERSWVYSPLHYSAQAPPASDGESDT
Protocol: as §1

BIKe(h) = BIKe(h) (Homo sapiens (Human), UniProt Q9NSY1)
Protocol: as §1

Blk(h) = Blk(h) (Homo sapiens (Human), UniProt P51451)
Sequence of Blk(h) (P51451 whole entry): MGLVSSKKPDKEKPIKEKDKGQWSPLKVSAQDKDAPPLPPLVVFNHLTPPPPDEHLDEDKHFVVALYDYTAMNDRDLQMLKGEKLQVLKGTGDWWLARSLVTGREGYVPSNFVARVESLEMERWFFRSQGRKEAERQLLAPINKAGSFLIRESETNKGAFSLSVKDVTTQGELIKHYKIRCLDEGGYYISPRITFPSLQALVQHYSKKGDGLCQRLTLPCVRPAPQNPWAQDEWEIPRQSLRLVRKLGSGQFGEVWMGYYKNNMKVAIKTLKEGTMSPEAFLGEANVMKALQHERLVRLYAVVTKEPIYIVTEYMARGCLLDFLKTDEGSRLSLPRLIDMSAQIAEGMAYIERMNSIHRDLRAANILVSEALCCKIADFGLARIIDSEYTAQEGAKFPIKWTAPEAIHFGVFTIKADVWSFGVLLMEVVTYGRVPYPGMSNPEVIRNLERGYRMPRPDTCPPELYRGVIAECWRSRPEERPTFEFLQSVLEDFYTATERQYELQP
Protocol: as §1

Bmx(h) = Bmx(h) (Homo sapiens (Human), UniProt P51813)
Protocol: as §1

IKKϵ(h) = IKKϵ(h) (Homo sapiens (Human), UniProt Q14164)
Protocol: as §1

PKCθ(h) = PKCθ(h) (Homo sapiens (Human), UniProt Q04759)
Protocol: as §1

BrSK2(h) = BrSK2(h) (Homo sapiens (Human), UniProt Q8IWQ3)
Protocol: as §1

JAK1(h) = JAK1(h) (Homo sapiens (Human), UniProt P23458)
Protocol: as §1

PKG1β(h) = PKG1β(h) (Homo sapiens (Human), UniProt Q13976)
Protocol: as §1

CaMKIδ(h) = CaMKIδ(h) (Homo sapiens (Human), UniProt Q8IU85)
Protocol: as §1

Lck(h) activated = Lck(h) activated (Homo sapiens (Human), UniProt P06239)
Protocol: as §1

CDK16/cyclinY(h) = CDK16/cyclinY(h) (Homo sapiens (Human), UniProt Q00536)
Protocol: as §1

ROCK-II(h) = ROCK-II(h) (Homo sapiens (Human), UniProt O75116)
Protocol: as §1

CDK9/cyclin T1(h) = CDK9/cyclin T1(h) (Homo sapiens (Human), UniProt P50750)
Protocol: as §1

MARK4(h) = MARK4(h) (Homo sapiens (Human), UniProt Q96L34)
Protocol: as §1

Met(M1268T)(h) = Met(M1268T)(h) (Homo sapiens (Human), UniProt P08581, M1250T)
Protocol: as §1

CK1δ(h) = CK1δ(h) (Homo sapiens (Human), UniProt P48730)
Protocol: as §1

Met(Y1248H)(h) = Met(Y1248H)(h) (Homo sapiens (Human), UniProt P08581, Y1230H)
Protocol: as §1

MINK(h) = MINK(h) (Homo sapiens (Human), UniProt Q8N4C8)
Sequence of MINK(h) (Q8N4C8 whole entry): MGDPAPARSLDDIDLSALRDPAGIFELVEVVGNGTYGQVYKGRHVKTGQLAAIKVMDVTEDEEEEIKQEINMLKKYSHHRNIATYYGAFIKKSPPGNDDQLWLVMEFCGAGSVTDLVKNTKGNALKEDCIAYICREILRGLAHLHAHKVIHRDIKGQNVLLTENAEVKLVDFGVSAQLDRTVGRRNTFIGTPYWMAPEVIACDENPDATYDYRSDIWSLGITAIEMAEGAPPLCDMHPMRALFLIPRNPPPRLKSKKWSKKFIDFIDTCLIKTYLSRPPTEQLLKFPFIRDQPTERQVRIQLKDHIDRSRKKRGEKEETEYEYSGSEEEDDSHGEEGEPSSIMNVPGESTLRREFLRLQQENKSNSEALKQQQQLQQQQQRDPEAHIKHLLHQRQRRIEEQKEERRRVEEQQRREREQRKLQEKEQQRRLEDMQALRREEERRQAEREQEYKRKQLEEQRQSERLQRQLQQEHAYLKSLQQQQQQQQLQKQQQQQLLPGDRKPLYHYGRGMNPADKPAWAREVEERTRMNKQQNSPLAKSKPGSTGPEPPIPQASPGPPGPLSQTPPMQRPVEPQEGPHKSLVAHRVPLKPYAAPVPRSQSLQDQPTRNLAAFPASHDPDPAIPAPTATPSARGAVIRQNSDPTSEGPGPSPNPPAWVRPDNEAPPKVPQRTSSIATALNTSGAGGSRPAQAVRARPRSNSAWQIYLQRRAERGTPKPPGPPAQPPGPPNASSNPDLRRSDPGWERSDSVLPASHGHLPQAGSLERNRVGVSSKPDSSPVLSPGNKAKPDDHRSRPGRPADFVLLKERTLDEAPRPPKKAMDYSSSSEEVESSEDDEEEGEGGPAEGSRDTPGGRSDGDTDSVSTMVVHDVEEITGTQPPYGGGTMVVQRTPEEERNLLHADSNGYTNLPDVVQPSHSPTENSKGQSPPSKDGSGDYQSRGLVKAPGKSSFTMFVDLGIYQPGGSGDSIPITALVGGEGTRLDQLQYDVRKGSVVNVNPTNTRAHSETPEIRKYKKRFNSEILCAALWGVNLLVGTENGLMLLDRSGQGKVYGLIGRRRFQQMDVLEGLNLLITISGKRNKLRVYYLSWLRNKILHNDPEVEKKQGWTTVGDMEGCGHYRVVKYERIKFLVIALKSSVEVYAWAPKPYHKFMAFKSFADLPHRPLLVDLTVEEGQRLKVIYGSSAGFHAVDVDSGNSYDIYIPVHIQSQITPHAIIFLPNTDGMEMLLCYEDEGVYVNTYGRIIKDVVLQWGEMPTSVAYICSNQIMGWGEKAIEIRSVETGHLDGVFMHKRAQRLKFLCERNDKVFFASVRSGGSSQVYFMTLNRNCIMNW
Protocol: as §1

MLCK(h) = tested on: MLCK(h)
Protocol: as §1

DAPK2(h) = DAPK2(h) (Homo sapiens (Human), UniProt Q9UIK4)
Protocol: as §1

DDR1(h) = DDR1(h) (Homo sapiens (Human), UniProt Q08345)
Protocol: as §1

MuSK(h) = MuSK(h) (Homo sapiens (Human), UniProt O15146)
Protocol: as §1

MYLK2(h) = MYLK2(h) (Homo sapiens (Human), UniProt Q9H1R3)
Protocol: as §1

NEK2(h) = NEK2(h) (Homo sapiens (Human), UniProt P51955)
Sequence of NEK2(h) (P51955 whole entry): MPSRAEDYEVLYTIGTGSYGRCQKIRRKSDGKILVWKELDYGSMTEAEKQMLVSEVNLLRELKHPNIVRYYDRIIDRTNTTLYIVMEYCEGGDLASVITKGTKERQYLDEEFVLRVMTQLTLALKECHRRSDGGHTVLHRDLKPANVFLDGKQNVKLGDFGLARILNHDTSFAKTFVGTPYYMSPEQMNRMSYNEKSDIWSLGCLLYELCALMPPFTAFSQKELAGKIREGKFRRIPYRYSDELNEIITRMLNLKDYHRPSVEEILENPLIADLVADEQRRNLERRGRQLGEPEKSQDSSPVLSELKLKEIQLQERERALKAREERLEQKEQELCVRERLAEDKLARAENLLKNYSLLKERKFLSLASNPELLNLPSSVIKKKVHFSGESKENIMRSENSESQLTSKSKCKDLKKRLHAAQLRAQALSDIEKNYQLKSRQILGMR
Protocol: as §1

EGFR(L858R)(h) = EGFR(L858R)(h) (Homo sapiens (Human), UniProt P00533, L858R)
Protocol: as §1

TTBK1(h) = TTBK1(h) (Homo sapiens (Human), UniProt Q5TCY1)
Protocol: as §1

EphA7(h) = EphA7(h) (Homo sapiens (Human), UniProt Q15375)
Protocol: as §1

PhKγ1(h) = PhKγ1(h) (Homo sapiens (Human), UniProt Q16816)
Protocol: as §1

Sequence of AAK1(h) (Q2M2I8 whole entry): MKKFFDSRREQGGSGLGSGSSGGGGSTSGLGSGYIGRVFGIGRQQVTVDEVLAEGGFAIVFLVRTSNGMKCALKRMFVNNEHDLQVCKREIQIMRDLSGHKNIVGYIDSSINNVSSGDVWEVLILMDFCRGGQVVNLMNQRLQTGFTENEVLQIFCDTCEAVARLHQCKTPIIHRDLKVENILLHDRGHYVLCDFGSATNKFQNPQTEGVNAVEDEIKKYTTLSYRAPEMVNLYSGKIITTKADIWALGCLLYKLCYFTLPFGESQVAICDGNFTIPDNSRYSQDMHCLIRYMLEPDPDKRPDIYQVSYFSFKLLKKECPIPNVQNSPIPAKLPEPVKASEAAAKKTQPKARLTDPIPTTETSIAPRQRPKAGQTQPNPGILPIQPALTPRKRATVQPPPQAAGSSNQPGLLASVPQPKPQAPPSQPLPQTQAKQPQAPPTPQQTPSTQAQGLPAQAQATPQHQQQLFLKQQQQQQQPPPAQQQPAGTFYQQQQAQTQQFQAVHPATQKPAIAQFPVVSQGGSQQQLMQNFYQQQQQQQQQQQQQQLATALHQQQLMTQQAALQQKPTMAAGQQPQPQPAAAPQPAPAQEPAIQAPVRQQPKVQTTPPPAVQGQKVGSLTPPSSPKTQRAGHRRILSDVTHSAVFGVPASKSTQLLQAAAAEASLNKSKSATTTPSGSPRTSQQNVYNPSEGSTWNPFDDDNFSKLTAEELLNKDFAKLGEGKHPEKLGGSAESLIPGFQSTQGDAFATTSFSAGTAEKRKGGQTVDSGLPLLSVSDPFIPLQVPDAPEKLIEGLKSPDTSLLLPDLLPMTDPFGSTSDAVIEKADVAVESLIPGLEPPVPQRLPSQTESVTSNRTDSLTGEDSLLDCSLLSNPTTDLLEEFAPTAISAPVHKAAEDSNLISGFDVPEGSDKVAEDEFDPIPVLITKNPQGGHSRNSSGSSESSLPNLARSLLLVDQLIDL
Sequence of PI3 Kinase (p110a/p65a)(h) (P42336 whole entry): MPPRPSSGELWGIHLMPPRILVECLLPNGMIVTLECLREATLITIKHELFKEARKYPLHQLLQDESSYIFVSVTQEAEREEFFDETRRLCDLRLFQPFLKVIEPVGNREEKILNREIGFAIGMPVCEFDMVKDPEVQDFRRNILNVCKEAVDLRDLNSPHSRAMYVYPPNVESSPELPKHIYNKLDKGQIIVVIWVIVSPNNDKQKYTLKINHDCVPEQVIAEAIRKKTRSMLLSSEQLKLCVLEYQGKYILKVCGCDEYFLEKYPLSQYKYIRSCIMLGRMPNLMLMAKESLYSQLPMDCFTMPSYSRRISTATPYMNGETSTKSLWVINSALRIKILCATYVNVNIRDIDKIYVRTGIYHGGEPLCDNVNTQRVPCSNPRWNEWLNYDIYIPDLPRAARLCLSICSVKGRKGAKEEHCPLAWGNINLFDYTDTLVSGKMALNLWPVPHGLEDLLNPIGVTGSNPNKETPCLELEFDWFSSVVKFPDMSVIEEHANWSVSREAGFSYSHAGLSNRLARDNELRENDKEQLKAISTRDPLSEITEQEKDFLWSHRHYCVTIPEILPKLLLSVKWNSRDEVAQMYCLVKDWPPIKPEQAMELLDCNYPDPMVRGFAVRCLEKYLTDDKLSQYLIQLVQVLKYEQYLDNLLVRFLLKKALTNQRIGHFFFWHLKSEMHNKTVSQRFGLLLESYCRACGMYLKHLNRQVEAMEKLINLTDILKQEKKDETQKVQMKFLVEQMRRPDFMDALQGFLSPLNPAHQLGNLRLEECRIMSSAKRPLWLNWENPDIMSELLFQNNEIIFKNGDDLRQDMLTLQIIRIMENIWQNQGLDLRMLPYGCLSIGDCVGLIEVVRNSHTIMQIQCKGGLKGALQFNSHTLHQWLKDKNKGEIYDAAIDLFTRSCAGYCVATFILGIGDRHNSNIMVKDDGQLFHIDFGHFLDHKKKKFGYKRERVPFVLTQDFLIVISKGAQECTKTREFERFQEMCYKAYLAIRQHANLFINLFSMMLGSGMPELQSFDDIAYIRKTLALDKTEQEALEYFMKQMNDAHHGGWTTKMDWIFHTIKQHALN

C[C@H](NC(=O)c1cn(C)c2ccc(-c3ccn4nc(NC(=O)C5CC5)nc4c3)cc12)c1cccc(F)c1 [Compound 94, (S)-5-(2-(cyclopropanecarboxamido)-[1,2,4]triazolo[1,5-a]pyridin-7-yl)-N-(1-(3-fluorophenyl)ethyl)-1-methyl-1H-indole-3-carboxamide]
Inhibition ratio/% (AAK1(h)): 2%
Inhibition ratio/% [1]: 4%
Inhibition ratio/% (GCN2(h)): 23%
Inhibition ratio/% (Haspin(h)): 48%
Inhibition ratio/% (Hck(h)): −8%
Inhibition ratio/% (PIP5K1g(h)): −16%
Inhibition ratio/% (BIKe(h)): −2%
Inhibition ratio/% (Blk(h)): 65%
Inhibition ratio/% (Bmx(h)): 34%
Inhibition ratio/% (IKKϵ(h)): −15%
Inhibition ratio/% (PKCθ(h)): 7%
Inhibition ratio/% (BrSK2(h)): −2%
Inhibition ratio/% (JAK1(h)): 52%
Inhibition ratio/% (PKG1β(h)): 0%
Inhibition ratio/% (CaMKIδ(h)): 26%
Inhibition ratio/% (Lck(h) activated): 46%
Inhibition ratio/% (CDK16/cyclinY(h)): 51%
Inhibition ratio/% (ROCK-II(h)): 7%
Inhibition ratio/% (CDK9/cyclin T1(h)): 61%
Inhibition ratio/% (MARK4(h)): 38%
Inhibition ratio/% (Met(M1268T)(h)): −10%
Inhibition ratio/% (CK1δ(h)): −12%
Inhibition ratio/% (Met(Y1248H)(h)): −11%
Inhibition ratio/% (MINK(h)): 53%
Inhibition ratio/% (MLCK(h)): 14%
Inhibition ratio/% (DAPK2(h)): 3%
Inhibition ratio/% (DDR1(h)): 21%
Inhibition ratio/% (MuSK(h)): 13%
Inhibition ratio/% (MYLK2(h)): −8%
Inhibition ratio/% (NEK2(h)): 24%
Inhibition ratio/% (EGFR(L858R)(h)): −5%
Inhibition ratio/% (TTBK1(h)): 13%
Inhibition ratio/% (EphA7(h)): 20%
Inhibition ratio/% (PhKγ1(h)): −12%

C[C@H](NC(=O)c1c[nH]c2ccc(-c3ccc4nc(NC(=O)C5CC5)sc4c3)cc12)c1cccc(F)c1 [Compound 34, (S)-5-(2-(cyclopropanecarboxamido)benzo[d]thiazol-6-yl)-N-(1-(3-fluorophenyl)ethyl)-1H-indole-3-carboxamide]
Inhibition ratio (AAK1(h)): 24%
Inhibition ratio [1]: 55%
Inhibition ratio (GCN2(h)): 14%
Inhibition ratio (Haspin(h)): 39%
Inhibition ratio (Hck(h)): 37%
Inhibition ratio (PIP5K1g(h)): 18%
Inhibition ratio (BIKe(h)): 8%
Inhibition ratio (Blk(h)): 65%
Inhibition ratio (Bmx(h)): 54%
Inhibition ratio (IKKϵ(h)): 19%
Inhibition ratio (PKCθ(h)): −24%
Inhibition ratio (BrSK2(h)): 8%
Inhibition ratio (JAK1(h)): 26%
Inhibition ratio (PKG1β(h)): 7%
Inhibition ratio (CaMKIδ(h)): 22%
Inhibition ratio (Lck(h) activated): 76%
Inhibition ratio (CDK16/cyclinY(h)): −30%
Inhibition ratio (ROCK-II(h)): 11%
Inhibition ratio (CDK9/cyclin T1(h)): 41%
Inhibition ratio (MARK4(h)): 3%
Inhibition ratio (Met(M1268T)(h)): 93%
Inhibition ratio (CK1δ(h)): 33%
Inhibition ratio (Met(Y1248H)(h)): 107%
Inhibition ratio (MINK(h)): 93%
Inhibition ratio (MLCK(h)): 14%
Inhibition ratio (DAPK2(h)): 13%
Inhibition ratio (DDR1(h)): 51%
Inhibition ratio (MuSK(h)): 88%
Inhibition ratio (MYLK2(h)): 55%
Inhibition ratio (NEK2(h)): 21%
Inhibition ratio (EGFR(L858R)(h)): 65%
Inhibition ratio (TTBK1(h)): 4%
Inhibition ratio (EphA7(h)): 96%
Inhibition ratio (PhKγ1(h)): 16%
